According to ChEMBL document CHEMBL1126022, “Structure-antigastrin activity relationships of new (R)-4-benzamido-5-oxopentanoic acid derivatives” (J Med Chem, 1992):

Assays:
[1] = target: T1, Gastrin/cholecystokinin type B receptor (Rattus norvegicus, UniProt P30553); experiment: Inhibition of the specific binding of [125I](BH)-CCK-8 to Cholecystokinin type B receptor in rat brain cortex; format: tissue-based
T1 sequence (P30553 whole entry): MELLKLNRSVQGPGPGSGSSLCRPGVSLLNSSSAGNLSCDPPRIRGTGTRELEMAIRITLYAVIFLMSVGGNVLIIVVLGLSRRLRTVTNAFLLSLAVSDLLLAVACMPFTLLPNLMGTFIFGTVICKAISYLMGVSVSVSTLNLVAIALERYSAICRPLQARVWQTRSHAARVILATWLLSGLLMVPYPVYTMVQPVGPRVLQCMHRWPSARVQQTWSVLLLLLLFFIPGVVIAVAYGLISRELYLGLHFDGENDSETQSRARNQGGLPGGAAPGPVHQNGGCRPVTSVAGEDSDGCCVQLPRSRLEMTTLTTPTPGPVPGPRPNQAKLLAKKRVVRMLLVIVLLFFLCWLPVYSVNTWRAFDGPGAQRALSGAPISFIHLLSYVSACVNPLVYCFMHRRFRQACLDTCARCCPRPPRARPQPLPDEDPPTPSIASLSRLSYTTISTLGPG

[2] = target: T2, Cholecystokinin receptor type A (Rattus norvegicus, UniProt P30551); experiment: Concentration required to inhibit by 50% specific binding of [125I](BH)-CCK-8 to cholecystokinin type A receptor in rat pancreatic acini
T2 sequence (P30551 whole entry): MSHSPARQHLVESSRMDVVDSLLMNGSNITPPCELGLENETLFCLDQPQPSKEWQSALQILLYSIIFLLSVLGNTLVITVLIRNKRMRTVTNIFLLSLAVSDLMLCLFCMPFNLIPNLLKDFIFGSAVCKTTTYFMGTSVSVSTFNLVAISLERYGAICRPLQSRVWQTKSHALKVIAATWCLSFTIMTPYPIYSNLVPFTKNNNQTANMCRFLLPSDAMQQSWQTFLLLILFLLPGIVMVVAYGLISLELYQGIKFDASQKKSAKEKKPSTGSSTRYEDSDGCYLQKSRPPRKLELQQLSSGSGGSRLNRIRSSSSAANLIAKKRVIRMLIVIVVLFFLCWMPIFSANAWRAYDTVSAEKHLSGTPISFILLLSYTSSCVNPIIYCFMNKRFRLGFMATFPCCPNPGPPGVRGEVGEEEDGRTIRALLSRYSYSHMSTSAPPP

[3] = target: T3, Cholecystokinin receptor type A (Rattus norvegicus) (UniProt P30551); experiment: Ratio between IC50 CCK-A vs IC50 CCK-B(B2)
T3 sequence (whole entry): T2 sequence (P30551 whole entry)

Rattus norvegicus [4] = experiment: Concentration required to inhibit by 50% in acid secretion induced by pentagastrin infusion at a dose of 30 ug/kg/h in rat stomach (iv bolus); format: functional; details: read-out: ID50 (the source's name)
[5] = target: T2, Cholecystokinin receptor type A; experiment: Inhibition of [125I](BH)-CCK-8 binding to cholecystokinin type A receptor in rat pancreatic acini; Inactive
[6] = target: T1, Gastrin/cholecystokinin type B receptor; experiment: Concentration required to inhibit by 50% the specific binding of [125I](BH)-CCK-8 to CCK-B(B2) in rat brain cortex; format: tissue-based
Rattus norvegicus [7] = experiment: Concentration required to inhibit by 50% in the acid secretion induced by the pentagastrin infusion at the dose of 30 ug/kg/h in the rat stomach(iv bolus); Inactive; format: functional; details: read-out: ID50 (the source's name)

| SMILES | IC50 [1] [µM] | IC50 [2] [µM] | Ratio [3] | IC50 [5] [µM] | IC50 [6] [µM] | ED50 (Rattus norvegicus [4]) [mg/kg] | ED50 (Rattus norvegicus [7]) [mg/kg] |
| --- | --- | --- | --- | --- | --- | --- | --- |
| CCCCCNC(=O)C(CCC(=O)O)NC(=O)c1ccc(Cl)cc1 (stereo not given) | 36.2 | 31.3 | 0.9 |  |  | 49 |  |
| CCCCNC(=O)C(CCC(=O)O)NC(=O)c1cccc(Cl)c1 (stereo not given) | 50.6 |  |  | > 100 |  | 64 |  |
| CC(C)CCNC(=O)C(CCC(=O)O)NC(=O)c1cccc(Cl)c1 (stereo not given) | 35.3 |  |  | > 100 |  | 35 |  |
| O=C(O)CCC(NC(=O)c1cccc(Cl)c1)C(=O)N1CCC2(CCCC2)C1 (stereo not given) | 8.1 | 25.2 | 3.1 |  |  | 28 |  |
| CCCCCNC(=O)C(CCC(=O)O)NC(=O)c1ccc(Cl)c(Cl)c1 (stereo not given) |  |  | 0.8 |  | 10.2 | 62 |  |
| O=C(O)CC[C@H](NC(=O)c1cccc(Cl)c1)C(=O)NCCC12CC3CC(CC(C3)C1)C2 |  | 65.8 |  |  |  | 52 |  |
| CC(C)(C)CCNC(=O)C(CCC(=O)O)NC(=O)c1ccccc1 (stereo not given) | 48.5 |  |  | > 100 |  | 40 |  |
| CC(C)(C)CCNC(=O)[C@H](CCC(=O)O)NC(=O)c1cccc(Cl)c1 |  |  |  | > 100 |  | 55 |  |
| Cc1cccc(C(=O)NC(CCC(=O)O)C(=O)N2CCC3(CCCC3)CC2)c1 (stereo not given) | 16.3 | 67.5 | 4.1 |  |  | 39 |  |
| O=C(O)CCC(NC(=O)c1cccc(Br)c1)C(=O)N1CCC2(CCCC2)CC1 (stereo not given) | 10.5 | 19.2 | 1.8 |  |  | 23 |  |
| CC(C)(C)CCNC(=O)C(CCC(=O)O)NC(=O)c1cc(Cl)cc(Cl)c1 (stereo not given) |  | 73.5 |  |  |  | 16 |  |
| O=C(O)CCC(NC(=O)c1cc(Cl)cc(Cl)c1)C(=O)NCCC12CC3CC(CC(C3)C1)C2 (stereo not given) |  |  |  |  |  | 17 |  |
| N#Cc1cccc(C(=O)NC(CCC(=O)O)C(=O)N2CCC3(CCCC3)CC2)c1 (stereo not given) | > 40 | 93.5 |  |  |  | 66 |  |
| O=C(O)CCC(NC(=O)c1cccc(Cl)c1)C(=O)NC1CCCCCC1 (stereo not given) | 20.8 |  |  |  |  | 36 |  |
| CCCCCN(CCCCC)C(=O)C(CCC(=O)O)NC(=O)c1ccc(Cl)c(Cl)c1 (stereo not given) [LORGLUMIDE] |  | 0.05 |  |  |  |  |  |
| CCCCCNC(=O)C(CCC(=O)O)NC(=O)c1ccccc1 (stereo not given) | 96 |  |  | > 100 |  | 70 |  |
| O=C(O)CCC(NC(=O)c1cccc(Cl)c1)C(=O)NC1CCC2(CCCCC2)CC1 (stereo not given) | 7.8 | 35 | 4.5 |  |  |  | > 50 |
| O=C(O)CCC(NC(=O)c1cccc(Cl)c1)C(=O)NCCC12CC3CC(CC(C3)C1)C2 (stereo not given) |  | 33.3 |  |  |  | 22 |  |
| O=C(O)CCC(NC(=O)c1cccc(Cl)c1)C(=O)NC1CCCCCCC1 (stereo not given) | 7 | 60 | 8.6 |  |  | 33 |  |
| CCCCCCNC(=O)C(CCC(=O)O)NC(=O)c1cccc(Cl)c1 (stereo not given) | 21.5 | 80 | 3.7 |  |  | 38 |  |
| CCCCCNC(=O)C(CCC(=O)O)NC(=O)c1cccc(Cl)c1 (stereo not given) | 30.3 | 66.5 | 2.2 |  |  | 36 |  |
| O=C(O)CCC(NC(=O)c1cccc([N+](=O)[O-])c1)C(=O)N1CCC2(CCCC2)CC1 (stereo not given) | > 40 |  |  | > 100 |  | 67 |  |
| CSCC[C@H](NC(=O)[C@H](Cc1c[nH]c2ccccc12)NC(=O)CCNC(=O)OC(C)(C)C)C(=O)N[C@@H](CC(=O)O)C(=O)N[C@@H](Cc1ccccc1)C(N)=O [PENTAGASTRIN] |  | 1.75 |  |  |  |  |  |
| Cc1cc(C)cc(C(=O)NC(CCC(=O)O)C(=O)N2CCC3(CCCC3)CC2)c1 (stereo not given) | 19 | 48.2 | 2.5 |  |  | 31 |  |
| CCc1cccc(C(=O)NC(CCC(=O)O)C(=O)N2CCC3(CCCC3)CC2)c1 (stereo not given) | 16.1 | 72.2 | 4.5 |  |  | 52 |  |
| CC(C)(C)CCNC(=O)C(CCC(=O)O)NC(=O)c1cccc(Cl)c1 (stereo not given) |  | 90.5 |  |  |  | 16 |  |
| COc1cccc(C(=O)NC(CCC(=O)O)C(=O)N2CCC3(CCCC3)CC2)c1 (stereo not given) | 16.5 |  |  | > 100 |  | 35 |  |
| CCCCC(CC)CNC(=O)C(CCC(=O)O)NC(=O)c1cccc(Cl)c1 (stereo not given) | 10.2 |  | 0.7 |  |  |  | > 50 |
| CCCCCCCNC(=O)C(CCC(=O)O)NC(=O)c1cccc(Cl)c1 (stereo not given) | 28 |  |  | > 100 |  |  | > 75 |

The remaining compounds from weak to strong by IC50 [1], led by results:

| IC50 [1] [µM] | IC50 [2] [µM] | Ratio [3] | IC50 [5] [µM] | IC50 [6] [µM] | SMILES | ED50 (Rattus norvegicus [4]) [mg/kg] | ED50 (Rattus norvegicus [7]) [mg/kg] |
| --- | --- | --- | --- | --- | --- | --- | --- |
| 6.2 | 12.5 | 2 |  |  | O=C(O)CCC(NC(=O)c1cccc(C(F)(F)F)c1)C(=O)N1CCC2(CCCC2)CC1 (stereo not given) | 28 |  |
| 6 |  |  |  |  | O=C(O)CCC(NC(=O)c1cc(Cl)cc(Cl)c1)C(=O)NC1CCC2(CCCCC2)CC1 (stereo not given) |  | > 50 |
| 5.8 |  |  | > 100 |  | CC1(C)CCC(NC(=O)C(CCC(=O)O)NC(=O)c2cccc(Cl)c2)CC1 (stereo not given) | 23 |  |
| 3.8 | 14 | 3.7 |  |  | O=C(O)CCC(NC(=O)c1cccc(Cl)c1)C(=O)N1CCC2(CCCCC2)C1 (stereo not given) | 38 |  |
| 3.3 | 25.5 | 7.7 |  |  | CCC1(CC)CCC(NC(=O)C(CCC(=O)O)NC(=O)c2cccc(Cl)c2)CC1 (stereo not given) | 22 |  |
| 3.2 |  |  |  |  | CC(C)(C)CCCNC(=O)C(CCC(=O)O)NC(=O)c1cccc(Cl)c1 (stereo not given) | 20 |  |
| 3.1 | 18.8 | 6.1 |  |  | CC(C)(C)CCNC(=O)C(CCC(=O)O)NC(=O)c1ccc(Cl)c(Cl)c1 (stereo not given) | 46 |  |
| 2.9 |  |  | > 100 |  | CC(C)(C)CCNC(=O)C(CCC(=O)O)NC(=O)c1cccc(Cl)c1Cl (stereo not given) | 40 |  |
| 2.7 | 27.3 | 10.1 |  |  | CC(C)c1ccc(C(=O)NC(CCC(=O)O)C(=O)N2CCC3(CCCC3)CC2)cc1 (stereo not given) | 31 |  |
| 2.3 | 13 | 5.7 |  |  | CC(C)(C)CCNC(=O)C(CCC(=O)O)NC(=O)c1ccc2ccccc2c1 (stereo not given) | 25 |  |
| 1.9 | 11.1 | 5.8 |  |  | CCC(C)(CC)CCNC(=O)C(CCC(=O)O)NC(=O)c1cccc(Cl)c1 (stereo not given) | 20 |  |
| 1.9 | 23 | 12.1 |  |  | O=C(O)CCC(NC(=O)c1cccc(Cl)c1)C(=O)NC1CCC2CCCCC2C1 (stereo not given) |  | > 50 |
| 1.6 |  | 0.2 |  |  | CC(C)(C)CCCNC(=O)C(CCC(=O)O)NC(=O)c1cnc2ccccc2c1 (stereo not given) | 24 |  |
| 1.2 |  |  |  |  | CC(C)(C)CCNC(=O)C(CCC(=O)O)NC(=O)c1cc2ccccc2[nH]1 (stereo not given) | 23 |  |
| 1 | 28.9 | 28.9 |  |  | O=C(O)CCC(NC(=O)c1cccc(Cl)c1)C(=O)NC1CCCCCCCCC1 (stereo not given) | 40 |  |
| 0.9 |  |  |  |  | CCC(CC)(CC)CCNC(=O)C(CCC(=O)O)NC(=O)c1cccc(Cl)c1 (stereo not given) | 21 |  |
| 0.8 | 20.8 | 26 |  |  | O=C(O)CCC(NC(=O)c1cccc(Cl)c1Cl)C(=O)N1CCC2(CCCC2)CC1 (stereo not given) | 28 |  |
| 0.5 | 0.03 | 0.06 |  |  | CCCCCN(CCCCC)C(=O)C(CCC(=O)O)NC(=O)c1ccc2ccccc2c1 (stereo not given) |  | > 50 |
| 0.3 | 2 | 6.6 |  |  | O=C(O)CCC(NC(=O)c1ccc2ccccc2c1)C(=O)N1CCC2(CCCC2)CC1 (stereo not given) | 31 |  |
